In paper PMC5154303, “Flavonol and imidazole derivatives block HPV16 E6 activities and reactivate apoptotic pathways in HPV^+ cells” (Cell Death & Disease, 2016):

How the values were obtained:
Format in all cases: cell-based, human
UMSCC47 = assay: TRAIL-induced cell death in HPV+ HNSCC line UMSCC47 (MTT); conditions: HPV+ #47, 40 μM compound 4 h, 50 ng/ml TRAIL + cycloheximide
Description: (§1) Figure 7 Myricetin and spinacine (5) can re-sensitize HPV^+, but not HPV^−, head and neck cancer cell lines to treatment with TRAIL. (a) Both HPV^− and HPV^+ HN cancer cell lines display resistance to TRAIL treatment. (b) HPV^− (UMSCC 29 and SCC 84) and (c) HPV^+ (UMSCC 47, UPCI-SCC90-UP-Clone 35, and UM-SCC47-TC-Clone 3) head and neck cancer cell lines (2 × 10^4 cells per well) were seeded into 96-well plates and allowed to incubate overnight, and then cells were pretreated with myricetin (0–200 μM) or spinacine (0–100 μM) for 4 h. […] Cell viability was measured by the MTT assay, and the viability of cells untreated with small molecules was set at 100%. Experiments were performed in triplicate, and error bars indicate the S.D.
(§2) The extracellular domain of human TRAIL was cloned into a pTriEx expression plasmid containing N-terminal Hisx6 tag. His-TRAIL was expressed in the E. coli BL-21 pLys strain and purified as previously described. Doxorubicin and cisplatin were purchased from Sigma. His-TRAIL, doxorubicin, and cisplatin were diluted in PBS to the desired concentration before using. […] All experiments were repeated at least three times (three biological replicates, carried out on different days), with each experimental group measured in triplicate within each of these individual experiments. […]

SCC84 = assay: TRAIL-induced cell death in HPV− HNSCC line SCC84 (MTT); conditions: HPV− #84, myricetin 0–200 μM or spinacine 0–100 μM, 50 ng/ml TRAIL
Description: as §1, §2

SiHa cells = assay: Cell toxicity in SiHa cells without TRAIL (MTT); conditions: overnight
Description: Figure 3 (a) HPV^+ SiHa cells are resistant to TRAIL-induced apoptosis as compared with the human osteosarcoma cell line U2OS. Cells (2 × 10^4 cells per well) were seeded into a 96-well plate, allowed to incubate overnight, and then treated with the indicated concentration of TRAIL in the presence of cycloheximide (5 μg/ml). The viability of cells was measured after overnight incubation using the MTT assay; the viability of cells untreated with TRAIL was set at 100% for each group. (b) The indicated concentrations of three small molecules were added to SiHa cells, and an MTT assay was preformed after overnight incubation. The viability of cells untreated with small molecules was set as 100%. (c) The indicated concentrations of myricetin or spinacine were added 4 h prior to TRAIL (100 ng/ml) in the presence of cycloheximide (5 μg/ml) and incubated at 37 °C overnight. […] Cell viability was measured after overnight incubation using the MTT assay, and the viability of cells untreated with either myricetin or spinacine was set at 100%. […]
The extracellular domain of human TRAIL was cloned into a pTriEx expression plasmid containing N-terminal Hisx6 tag. […] All experiments were repeated at least three times (three biological replicates, carried out on different days), with each experimental group measured in triplicate within each of these individual experiments. […]

caspase 3/7 = assay: Caspase 3/7 activity assay in SiHa cells; conditions: 100 μM myricetin or 50 μM spinacine 4 h, then TRAIL 100 ng/ml + cycloheximide, 0–6 h, versus controls
Description: Figure 4 Myricetin and spinacine (5) increase caspase 3/7 activity in SiHa cells following treatment with TRAIL and chemotherapy drugs. SiHa cells (2 × 10^4 cells per well) were seeded into a 96-well plate and allowed to incubate overnight and then pretreated with 100 μM of myricetin or 50 μM of spinacine for 4 h. (a) TRAIL (100 ng/ml), along with cycloheximide (5 μg/ml), (b) cisplatin (50 μM), or (c) doxorubicin (2 μM) were added respectively. Caspase 3/7 activity was measured after 0, 1.5, 3, and 6 h using the CellTiter-Glo assay. Activity at 0 h of treatment was set at 100% for each group. Experiments were performed in triplicate, and error bars indicate the S.D.
Cells were plated into 96-well plates at a density of 2 × 10^4 cells per well and incubated overnight. Small molecules were then added and incubated at 37 °C for 4 h. TRAIL (100 ng/ml), cisplatin (50 μM), and doxorubicin (2 μM) were then added. […] Caspase 3/7 activity was measured using the flourogenic substrate CellTitier-Glo for caspase 3/7 activity (Promega, Fitchburg, WI, USA) following the manufacturer's instructions. […] After a 10-min incubation, the released fluorophore was measured using a plate-reading fluorimeter (Flx800, Bio-Tek Instrument Co., Winooski, VT, USA). […] The resulting difference was expressed as a percentage of the caspase activity of the untreated cells.

UMSCC29 = assay: TRAIL-induced cell death in HPV− HNSCC line UMSCC29 (MTT); conditions: HPV− #29, myricetin 0–200 μM or spinacine 0–100 μM, 50 ng/ml TRAIL
Description: as §1, §2

SMILES | enhancement of TRAIL-induced cell death (UMSCC47) | response to TRAIL in presence and absence of compound (SCC84) | toxicity to SiHa cells in the absence of TRAIL (SiHa cells) | caspase 3/7 activity in combination with TRAIL (caspase 3/7) | response to TRAIL in presence and absence of compound (UMSCC29)
O=c1c(O)c(-c2cc(O)c(O)c(O)c2)oc2cc(O)cc(O)c12 [Myricetin, myricetin, reference compound] | 40% | resistant | low toxicity | increased | resistant
O=C(O)C1Cc2[nH]cnc2CN1 (stereo not shown) [Spinacine (5), 4,5,6,7-tetrahydro-1H-imidazo[4,5–c]pyridine-6-carboxylic acid] | up to 50% | resistant | low toxicity | increased | resistant
